Source: patent US9212142B2 (Trustees of Tufts College, priority 2010, dated 2015)

Legend:
high fat-fed hamsters [1] = assay: Plasma glucose in high fat-fed hamsters dosed 18 days; format: in vivo, Golden Syrian hamster; conditions: ARI-001 1120 and 2240 mg/kg
Protocol: These animals were dosed for 18 consecutive days, while being on a HF/HS diet for a total of nearly 5 weeks. We also examined the glucose levels in the plasma of these animals. For pharmacokinetic studies, we utilized wild type mice for both single and repeated administration study. Finally, pharmacokinetic studies were corroborated by data from single and repeated administration to monkeys.

[2] = Multiple administration pharmacokinetic study of ARI-001 in wild type mice; format: in vivo, C57BL/6 mice; conditions: 996, 1493, 2240, 3360 mg/kg oral gavage daily, 30 days
Protocol: Wild type C57BL/6 mice were dosed with ARI-001 in solution via oral gavage daily for 30 consecutive days. Over the course of five 24-hour periods, blood was collected, and the resultant plasma was analyzed for concentrations of ARI-001. Four doses were used: 996 mg/kg, 1493 mg/kg, 2240 mg/kg, and 3360 mg/kg. […] However, these values were time-independent, as there was no trend observed between these parameters and days of administration. See FIGS. 15A-15D and FIGS. 16A-16B.

[3] = Pharmacokinetics of multiple administrations of ARI-001 to fasted monkeys; format: in vivo, Macaque monkeys; conditions: 288 mg/kg oral gavage once per day, seven days
Protocol: ARI-001 was administered to monkeys via oral gavage once per day for a total of seven days. Blood samples were collected after the first and after the last administrations to measure plasma concentrations of ARI-001.

high fat-fed hamsters [4] = assay: Liver function tests (AST, ALT) in plasma of high fat-fed hamsters dosed 18 days; format: in vivo, Golden Syrian hamster
Protocol: These animals were dosed for 18 consecutive days, while being on a HF/HS diet for a total of nearly 5 weeks. We also examined the glucose levels in the plasma of these animals. For pharmacokinetic studies, we utilized wild type mice for both single and repeated administration study. Finally, pharmacokinetic studies were corroborated by data from single and repeated administration to monkeys. […] AST and ALT were measured using commercially available kits (Bio-Quant Diagnostic Kits, San Diego, Calif.). As expected, AST and ALT values from untreated hamsters (vehicle group) were very high, as the high fat diet leads to hepatomegaly and fatty liver. This disease state is reflected in the elevated AST and ALT levels.

[5] = Single-dose pharmacokinetic study of ARI-001 in wild type mice (PO, IP); format: in vivo, C57BL/6 mice; conditions: oral gavage or intraperitoneal injection
Protocol: Plasma from the 19 hamsters dosed with ARI-001 in the above described 18-day study was analyzed for concentrations of ARI-001. Concentrations were determined for these samples, which were collected 24 hours after the final dose was administered. Briefly, plasma drug concentrations for the non-GLP pharmacokinetic experiments were determined by LC-MS using an Applied Biosystems 4000Qtrap spectrometer with electrospray ionization. Samples were prepared for analysis by precipitation of plasma proteins with cold methanol. HPLC of the samples was done with an Agilent Eclipse C18 column and a methanol/water gradient containing 0.1% formic acid and 5 mM ammonium acetate. ARI-001 was detected using multiple reaction monitoring (MRM) in the positive ion mode. For quantitation, a standard curve was measured by addition of known amounts of ARI-001 to plasma from untreated animals and preparing in a manner identical to the samples from treated animals. […] Pearson r values were determined using all data points, as was the two-tailed P-value for the data set.
Wild type C57BL/6 mice were dosed with a single administration of ARI-001 in solution either via oral gavage (PO) or via intraperitoneal injection (IP). Blood samples were then collected at various time points over a 24-hour period; plasma was then analyzed for concentrations of ARI-001 as described earlier. […]

[6] = Stability of ARI-001 stored at 50° C., purity by LC-MS; format: physicochemical
Protocol: ARI-001 was synthesized as described above. Purity was determined independently before use in experiments by examination via liquid chromatography-mass spectroscopy (LC-MS). A sample of material was dissolved in water/acetonitrile and injected onto a Discovery C-18 reverse phase column. The mobile phase began as 2%:98% acetonitrile:water, which was held for three minutes, after which a linear gradient was started that ran over 6 minutes, increasing the percent of acetonitrile until a final ratio of 98%:2% acetonitrile:water was reached. This final ratio was held for 3 minutes. The major peak was identified as ARI-001.
Stability was determined by storing ARI-001 under 50° C. with no specified humidity requirement. At various time points over the course of 3 months (90 days), a small sample (<5 mg) of ARI-001 was collected for analysis using LC-MS under the same conditions as used for purity determination (vide supra).

[7] = ARI-001 concentrations in liver and adipose tissue vs plasma; format: in vivo, Golden Syrian hamster; conditions: HF/HS hamsters dosed 18 days; p<0.01
Protocol: Tissue samples were harvested from hamsters in the above-described 18-day experiment to determine the concentrations of ARI-001 in both liver and adipose tissue. Briefly, liver and adipose samples were harvested at the termination of the experiment; the samples were flash frozen in liquid nitrogen and then stored at −80° C. until used for analysis. To prepare for analysis, a sample of liver was excised from the frozen mass, weighed, and homogenized with a tissue grinder followed by sonication in buffer. The solid materials were then removed by centrifugation. To prepare for LC-MS analysis, the homogenate was then treated to the same preparation technique described for plasma preparation (vide supra). A sample of adipose was excised from the frozen mass, and transferred to a mortar and pestle cooled with liquid nitrogen. During grinding, liquid nitrogen was added to ensure the sample of adipose remained solid. The ground sample was transferred to a tared tube to weigh total sample. This ground sample was extracted with methanol, and this compound-containing methanol was separated from lipid by cooling to −20° C. […]
FIG. 8 graphs the correlation between concentrations of ARI-001 in plasma versus liver (left), and in plasma versus adipose (right). […] Pearson r was determined using all data points illustrated. P-value was determined for a 2-tailed t-test using all data points illustrated.

[8] = Once daily vs twice daily dosing of ARI-001, plasma lipids in animal models; format: in vivo; conditions: ARI-001 given once daily
[9] = niacin 1500 mg (roughly equimolar dose); niacin was no arm of the trial; cited from earlier work

Cmax levels and total 24-hour exposure (AUC) vs days of administration [2] | Cmax levels and total 24-hour exposure (AUC) vs dose [2] | Cmax value day 7 versus day 1 [3] | concentrations 24 hours after the first or the last doses [3] | plasma concentrations on day 1 versus day 7 [3] | remaining plasma concentration of ARI-001 at the 24 hour timepoint [5] | purity of ARI-001 on storage ([6]; after 90 days) [%] | purity of ARI-001 on storage ([6]; unregulated humidity, 65 days) [%] | correlation between concentrations of ARI-001 in plasma versus adipose [7] | correlation between concentrations of ARI-001 in plasma versus liver [7] | Compound | glucose levels in comparison to the vehicle cohort (high fat-fed hamsters [1]) | AST in plasma vs vehicle (high fat-fed hamsters [4]; ARI-001 2240 mg/kg) | ALT in plasma vs vehicle (high fat-fed hamsters [4]; ARI-001 1120 and 2240 mg/kg, dose-dependent) | changes in plasma lipids, once daily vs same total dose twice daily [8] | Cmax [9]
time-independent | dose-dependent | higher on day 7 than on day 1 | essentially identical | very little difference | undetectable | 95.9 | 98.9 | highly statistically significant | highly statistically significant | O=C(O)c1ccc(CCN2CCOCC2)nc1 [ARI-001] | neither dose of ARI-001 produced any significant change | drastically reduced | similarly reduced | greater than or equal to the lipid altering effects observed with the same total dose of ARI-001 given twice daily | –
– | – | – | – | – | – | – | – | – | – | O=C(O)c1cccnc1 [Niacin, nicotinic acid] | – | – | – | – | about 30,000 ng/mL
